Measurements reported in PubChem BioAssay (NCI).
“And” between values parts separate entries of the source, which are not always exact repeats. Equal entries are not always repeated.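 In this assay, cells in 96-well plates receive the compound at five concentrations for 48 hours. Endpoints are linearly interpolated between the surrounding concentrations. GI50 is the concentration that inhibits growth by half. TGI is the concentration that stops growth completely.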

Assays:
Test in all cases: NCI tumour cell line growth inhibition, 48 h
786-0 renal = test system: 786-0 renal
ACHN renal = test system: ACHN renal
BT-549 breast = test system: BT-549 breast
DLD-1 colon = test system: DLD-1 colon
DMS 114 small cell lung = test system: DMS 114 small cell lung
DMS 273 small cell lung = test system: DMS 273 small cell lung
DU-145 prostate = test system: DU-145 prostate
HCC-2998 colon = test system: HCC-2998 colon
HCT-15 colon = test system: HCT-15 colon
HL-60(TB) leukemia = test system: HL-60(TB) leukemia
HOP-18 NSCLC = test system: HOP-18 NSCLC
HOP-92 NSCLC = test system: HOP-92 NSCLC
HS 578T breast = test system: HS 578T breast
KM12 colon = test system: KM12 colon
KM20L2 colon = test system: KM20L2 colon
M14 melanoma = test system: M14 melanoma
M19-MEL melanoma = test system: M19-MEL melanoma
MDA-MB-231 breast = test system: MDA-MB-231 breast
MDA-MB-435 = test system: MDA-MB-435
MDA-N = test system: MDA-N
NCI-H460 lung = test system: NCI-H460 lung
NCI-H522 lung = test system: NCI-H522 lung
NCI/ADR-RES ovarian = test system: NCI/ADR-RES ovarian
OVCAR-4 ovarian = test system: OVCAR-4 ovarian
P388 leukemia = test system: P388 leukemia
P388/ADR leukemia = test system: P388/ADR leukemia
PC-3 prostate = test system: PC-3 prostate
RXF 393 renal = test system: RXF 393 renal
SN12K1 renal = test system: SN12K1 renal
SNB-78 CNS = test system: SNB-78 CNS
SR leukemia = test system: SR leukemia
T-47D breast = test system: T-47D breast
TK-10 renal = test system: TK-10 renal
UO-31 renal = test system: UO-31 renal
XF 498 CNS = test system: XF 498 CNS
A498 renal = test system: A498 renal
A549 NSCLC = test system: A549 NSCLC
CAKI-1 renal = test system: CAKI-1 renal
CCRF-CEM leukemia = test system: CCRF-CEM leukemia
COLO 205 colon = test system: COLO 205 colon
EKVX NSCLC = test system: EKVX NSCLC
HCT-116 colon = test system: HCT-116 colon
HOP-62 NSCLC = test system: HOP-62 NSCLC
HT29 colon = test system: HT29 colon
IGROV1 ovarian = test system: IGROV1 ovarian
K-562 leukemia = test system: K-562 leukemia
LOX IMVI melanoma = test system: LOX IMVI melanoma
LXFL 529 NSCLC = test system: LXFL 529 NSCLC
MALME-3M melanoma = test system: MALME-3M melanoma
MCF7 breast = test system: MCF7 breast
MOLT-4 leukemia = test system: MOLT-4 leukemia
NCI-H226 lung = test system: NCI-H226 lung
NCI-H23 lung = test system: NCI-H23 lung
OVCAR-3 ovarian = test system: OVCAR-3 ovarian
OVCAR-5 ovarian = test system: OVCAR-5 ovarian
OVCAR-8 ovarian = test system: OVCAR-8 ovarian
RPMI-8226 leukemia = test system: RPMI-8226 leukemia
SF-268 CNS = test system: SF-268 CNS
SF-295 CNS = test system: SF-295 CNS
SF-539 CNS = test system: SF-539 CNS
SK-MEL-2 melanoma = test system: SK-MEL-2 melanoma
SK-MEL-28 melanoma = test system: SK-MEL-28 melanoma
SK-MEL-5 melanoma = test system: SK-MEL-5 melanoma
SK-OV-3 ovarian = test system: SK-OV-3 ovarian
SN12C renal = test system: SN12C renal
SNB-19 CNS = test system: SNB-19 CNS
SNB-75 CNS = test system: SNB-75 CNS
SW-620 colon = test system: SW-620 colon
U251 CNS = test system: U251 CNS
UACC-257 melanoma = test system: UACC-257 melanoma
UACC-62 melanoma = test system: UACC-62 melanoma

CCCCCC(O)C1C(=O)OC(C)C(O)/C=C/C=C/C=C/C=C/C=C(\C)C(O)C(O)C(O)CC(O)CC(O)CC(O)CC(O)CC1O (stereo not drawn)
TGI (786-0 renal): > 100 µM | TGI (ACHN renal): > 100 µM | TGI (BT-549 breast): > 100 µM | TGI (DLD-1 colon): 3.32 µM | TGI (DMS 114 small cell lung): 2.92 µM | TGI (DMS 273 small cell lung): 2.84 µM | TGI (DU-145 prostate): > 100 µM | TGI (HCC-2998 colon): 3.26 µM | TGI (HCT-15 colon): 5.93 µM | TGI (HL-60(TB) leukemia): > 100 µM | TGI (HOP-18 NSCLC): 4.61 µM | TGI (HOP-92 NSCLC): 3.21 µM | TGI (HS 578T breast): > 100 µM | GI50 (KM12 colon): 11.8 µM and 1.77 µM | TGI (KM20L2 colon): 5.64 µM | TGI (M14 melanoma): > 100 µM | TGI (M19-MEL melanoma): 2.59 µM | TGI (MDA-MB-231 breast): > 100 µM | TGI (MDA-MB-435): > 100 µM | TGI (MDA-N): > 100 µM | TGI (NCI-H460 lung): 3.44 µM | TGI (NCI-H522 lung): 3.3 µM | TGI (NCI/ADR-RES ovarian): 3.73 µM | TGI (OVCAR-4 ovarian): 3.25 µM | TGI (P388 leukemia): 2.42 µM | TGI (P388/ADR leukemia): 3.8 µM | TGI (PC-3 prostate): > 100 µM | TGI (RXF 393 renal): 1.89 µM | TGI (SN12K1 renal): 2.97 µM | TGI (SNB-78 CNS): 4.69 µM | TGI (SR leukemia): > 100 µM | TGI (T-47D breast): > 100 µM | TGI (TK-10 renal): > 100 µM | TGI (UO-31 renal): 3.27 µM | TGI (XF 498 CNS): 2.84 µM

O=C(O)/C=C/C(=O)N1C/C(=C\c2ccccc2)C(=O)/C(=C/c2ccccc2)C1
TGI (786-0 renal): 10.6 µM | TGI (A498 renal): 34.5 µM | TGI (A549 NSCLC): 52 µM | TGI (ACHN renal): 20.9 µM | TGI (CAKI-1 renal): 31.1 µM | TGI (CCRF-CEM leukemia): 7.18 µM | TGI (COLO 205 colon): 24.3 µM | TGI (DLD-1 colon): 12.2 µM | TGI (DMS 114 small cell lung): 8.78 µM | TGI (DMS 273 small cell lung): 20 µM | TGI (EKVX NSCLC): 44.3 µM | TGI (HCC-2998 colon): 13.1 µM | TGI (HCT-116 colon): 3.48 µM | TGI (HCT-15 colon): 20.6 µM | TGI (HL-60(TB) leukemia): 26.6 µM | TGI (HOP-18 NSCLC): 26.3 µM | TGI (HOP-62 NSCLC): 41.7 µM | TGI (HOP-92 NSCLC): 37.9 µM | TGI (HT29 colon): 21.1 µM | TGI (IGROV1 ovarian): 31.9 µM | TGI (K-562 leukemia): 7.86 µM | TGI (KM12 colon): 6.07 µM | TGI (KM20L2 colon): 17.6 µM | TGI (LOX IMVI melanoma): 10.5 µM | TGI (LXFL 529 NSCLC): 3.72 µM | TGI (M14 melanoma): 11.9 µM | TGI (M19-MEL melanoma): 9.41 µM | TGI (MALME-3M melanoma): 12.3 µM | TGI (MCF7 breast): 18.3 µM | TGI (MOLT-4 leukemia): 9.26 µM | TGI (NCI-H226 lung): 31.3 µM | TGI (NCI-H23 lung): 23.9 µM | TGI (NCI-H460 lung): 30.8 µM | TGI (NCI-H522 lung): 4.94 µM | TGI (NCI/ADR-RES ovarian): 61.7 µM | TGI (OVCAR-3 ovarian): 15.6 µM | TGI (OVCAR-4 ovarian): 16.4 µM | TGI (OVCAR-5 ovarian): 31.8 µM | TGI (OVCAR-8 ovarian): 11.7 µM | TGI (P388 leukemia): 41.6 µM | TGI (P388/ADR leukemia): > 70.7 µM | TGI (RPMI-8226 leukemia): 6.22 µM | TGI (RXF 393 renal): 17.5 µM | TGI (SF-268 CNS): 16.8 µM | TGI (SF-295 CNS): 11.8 µM | TGI (SF-539 CNS): 26.7 µM | TGI (SK-MEL-2 melanoma): 17.2 µM | TGI (SK-MEL-28 melanoma): 15.9 µM | TGI (SK-MEL-5 melanoma): 19 µM | TGI (SK-OV-3 ovarian): 42.7 µM | TGI (SN12C renal): 15.5 µM | TGI (SN12K1 renal): 3.57 µM | TGI (SNB-19 CNS): 23.6 µM | TGI (SNB-75 CNS): 20.6 µM | TGI (SNB-78 CNS): 24.2 µM | TGI (SR leukemia): 41.6 µM | TGI (SW-620 colon): 6.09 µM | TGI (TK-10 renal): 22.8 µM | TGI (U251 CNS): 3.79 µM | TGI (UACC-257 melanoma): 15.8 µM | TGI (UACC-62 melanoma): 8.7 µM | TGI (UO-31 renal): 24.9 µM | TGI (XF 498 CNS): 15.8 µM
